Measurements published in the NIST ThermoML archive (doi:10.1021/je800527p).

Assay: mn = molality of the nth substance listed, in mol/kg
Conditions: 101 kPa, Liquid

NCC(=O)N[C@@H](CS)C(=O)NCC(=O)O [glycyl-L-cysteinylglycine] + O
Conditions	mass density [kg/m3]
288.15 K, m1 = 0.01633	1000.63
288.15 K, m1 = 0.02087	1001.05
288.15 K, m1 = 0.02582	1001.51
288.15 K, m1 = 0.02984	1001.88
288.15 K, m1 = 0.03474	1002.34
288.15 K, m1 = 0.0395	1002.78
288.15 K, m1 = 0.04097	1002.91
288.15 K, m1 = 0.04442	1003.23
288.15 K, m1 = 0.04953	1003.71
303.15 K, m1 = 0.02103	997.568
303.15 K, m1 = 0.02497	997.92
303.15 K, m1 = 0.02788	998.184
303.15 K, m1 = 0.03046	998.417
303.15 K, m1 = 0.03394	998.731
303.15 K, m1 = 0.0374	999.043
303.15 K, m1 = 0.04008	999.279
303.15 K, m1 = 0.04358	999.593
303.15 K, m1 = 0.05003	1000.17
303.15 K, m1 = 0.05296	1000.43
313.15 K, m1 = 0.02094	994.099
313.15 K, m1 = 0.03109	995.001
313.15 K, m1 = 0.03597	995.437
313.15 K, m1 = 0.03941	995.739
313.15 K, m1 = 0.04508	996.242
313.15 K, m1 = 0.05002	996.672
313.15 K, m1 = 0.05218	996.867
313.15 K, m1 = 0.05751	997.331

NCC(=O)N[C@@H](Cc1cnc[nH]1)C(=O)NCC(=O)O [glycyl-L-histidylglycine] + O
Conditions	mass density [kg/m3]
288.15 K, m1 = 0.004019	999.501
288.15 K, m1 = 0.00501	999.6
288.15 K, m1 = 0.006072	999.708
288.15 K, m1 = 0.007051	999.802
288.15 K, m1 = 0.008127	999.911
288.15 K, m1 = 0.00901	1000
288.15 K, m1 = 0.01012	1000.11
288.15 K, m1 = 0.01088	1000.19
288.15 K, m1 = 0.01205	1000.31
298.15 K, m1 = 0.004009	997.442
298.15 K, m1 = 0.007226	997.762
298.15 K, m1 = 0.008041	997.838
298.15 K, m1 = 0.00901	997.939
298.15 K, m1 = 0.01009	998.038
298.15 K, m1 = 0.01109	998.142
298.15 K, m1 = 0.01227	998.254
303.15 K, m1 = 0.00404	996.046
303.15 K, m1 = 0.00498	996.138
303.15 K, m1 = 0.006103	996.247
303.15 K, m1 = 0.00711	996.346
303.15 K, m1 = 0.007975	996.427
303.15 K, m1 = 0.01106	996.73
303.15 K, m1 = 0.01225	996.842
313.15 K, m1 = 0.005108	992.711
313.15 K, m1 = 0.006051	992.804
313.15 K, m1 = 0.006936	992.89
313.15 K, m1 = 0.0082	993.012
313.15 K, m1 = 0.01022	993.207
313.15 K, m1 = 0.01138	993.309
313.15 K, m1 = 0.01232	993.4

NCC(=O)N[C@@H](CO)C(=O)NCC(=O)O [glycyl-L-serylglycine] + O
Conditions	mass density [kg/m3]
288.15 K, m1 = 0.03014	1001.82
288.15 K, m1 = 0.03542	1002.28
288.15 K, m1 = 0.04107	1002.79
288.15 K, m1 = 0.04543	1003.18
288.15 K, m1 = 0.05019	1003.61
288.15 K, m1 = 0.05524	1004.05
288.15 K, m1 = 0.06026	1004.51
288.15 K, m1 = 0.06526	1004.95
298.15 K, m1 = 0.025	999.264
298.15 K, m1 = 0.0306	999.768
298.15 K, m1 = 0.03505	1000.16
298.15 K, m1 = 0.04024	1000.61
298.15 K, m1 = 0.04521	1001.05
298.15 K, m1 = 0.05166	1001.62
298.15 K, m1 = 0.05493	1001.9
298.15 K, m1 = 0.0598	1002.34
298.15 K, m1 = 0.06564	1002.84
303.15 K, m1 = 0.02533	997.881
303.15 K, m1 = 0.02992	998.289
303.15 K, m1 = 0.03496	998.733
303.15 K, m1 = 0.0453	999.64
303.15 K, m1 = 0.05003	1000.05
303.15 K, m1 = 0.0555	1000.53
303.15 K, m1 = 0.06095	1001
303.15 K, m1 = 0.06473	1001.34
313.15 K, m1 = 0.02969	994.793
313.15 K, m1 = 0.03329	995.098
313.15 K, m1 = 0.03976	995.655
313.15 K, m1 = 0.04401	996.025
313.15 K, m1 = 0.04969	996.506
313.15 K, m1 = 0.05419	996.891
313.15 K, m1 = 0.05935	997.32
313.15 K, m1 = 0.06498	997.808

NCC(=O)N[C@@H](Cc1ccc(O)cc1)C(=O)NCC(=O)O [glycyl-L-tyrosylglycine] + O
Conditions	mass density [kg/m3]
288.15 K, m1 = 0.01708	1000.85
288.15 K, m1 = 0.01938	1001.08
288.15 K, m1 = 0.02117	1001.26
288.15 K, m1 = 0.023	1001.45
288.15 K, m1 = 0.02384	1001.53
288.15 K, m1 = 0.02504	1001.65
288.15 K, m1 = 0.02575	1001.72
288.15 K, m1 = 0.02705	1001.85
288.15 K, m1 = 0.0279	1001.95
288.15 K, m1 = 0.02909	1002.06
303.15 K, m1 = 0.01685	997.325
303.15 K, m1 = 0.01781	997.42
303.15 K, m1 = 0.019	997.535
303.15 K, m1 = 0.02087	997.719
303.15 K, m1 = 0.02301	997.932
303.15 K, m1 = 0.02396	998.023
303.15 K, m1 = 0.02501	998.127
303.15 K, m1 = 0.02604	998.224
303.15 K, m1 = 0.02701	998.323
303.15 K, m1 = 0.02792	998.415
303.15 K, m1 = 0.02882	998.496
313.15 K, m1 = 0.017	993.889
313.15 K, m1 = 0.01785	993.972
313.15 K, m1 = 0.01889	994.065
313.15 K, m1 = 0.02086	994.259
313.15 K, m1 = 0.0216	994.332
313.15 K, m1 = 0.02288	994.456
313.15 K, m1 = 0.02376	994.546
313.15 K, m1 = 0.02492	994.655
313.15 K, m1 = 0.02586	994.742
313.15 K, m1 = 0.02688	994.842
313.15 K, m1 = 0.02763	994.913
313.15 K, m1 = 0.02902	995.047

N[C@@H](CC(=O)NCC(=O)O)C(=O)NCC(=O)O [L-aspartoylbisglycine] + O
Conditions	mass density [kg/m3]
288.15 K, m1 = 0.02634	1001.74
288.15 K, m1 = 0.03248	1002.34
288.15 K, m1 = 0.03979	1003.07
288.15 K, m1 = 0.04516	1003.6
288.15 K, m1 = 0.05155	1004.23
288.15 K, m1 = 0.05974	1005.03
288.15 K, m1 = 0.06457	1005.5
288.15 K, m1 = 0.06951	1005.98
298.15 K, m1 = 0.02287	999.295
298.15 K, m1 = 0.02484	999.489
298.15 K, m1 = 0.02795	999.79
298.15 K, m1 = 0.03159	1000.15
298.15 K, m1 = 0.0337	1000.35
298.15 K, m1 = 0.03757	1000.73
298.15 K, m1 = 0.04282	1001.24
298.15 K, m1 = 0.0486	1001.8
298.15 K, m1 = 0.05367	1002.29
298.15 K, m1 = 0.05892	1002.8
303.15 K, m1 = 0.02228	997.821
303.15 K, m1 = 0.02508	998.095
303.15 K, m1 = 0.02783	998.36
303.15 K, m1 = 0.0319	998.757
303.15 K, m1 = 0.03772	999.316
303.15 K, m1 = 0.0429	999.814
303.15 K, m1 = 0.04971	1000.47
303.15 K, m1 = 0.0554	1001.02
303.15 K, m1 = 0.06187	1001.64
313.15 K, m1 = 0.02228	994.368
313.15 K, m1 = 0.02508	994.635
313.15 K, m1 = 0.02783	994.898
313.15 K, m1 = 0.0319	995.29
313.15 K, m1 = 0.03772	995.842
313.15 K, m1 = 0.0429	996.336
313.15 K, m1 = 0.04971	996.987
313.15 K, m1 = 0.0554	997.526
313.15 K, m1 = 0.06187	998.14
